Results from patent publication US10233186B2, “Inhibitors of activin receptor-like kinase” (BLUEPRINT MEDICINES CORPORATION, priority 2016, dated 2019).
Like-named read-outs stand apart in the source and are kept apart here.

What was measured:
[1] = target: T1, ALK2 R206H (GST-tagged mutant ALK2) (Homo sapiens, UniProt Q04771, R206H); experiment: ALK binding assay (LANTHASCREEN TR-FRET competitive binding, displacement of Kinase Tracer 178)
T1 construct: purchased Carna Bioscience or ThermoFisher 09-148 or PV6232
T1 sequence (Q04771 21-509 R206H): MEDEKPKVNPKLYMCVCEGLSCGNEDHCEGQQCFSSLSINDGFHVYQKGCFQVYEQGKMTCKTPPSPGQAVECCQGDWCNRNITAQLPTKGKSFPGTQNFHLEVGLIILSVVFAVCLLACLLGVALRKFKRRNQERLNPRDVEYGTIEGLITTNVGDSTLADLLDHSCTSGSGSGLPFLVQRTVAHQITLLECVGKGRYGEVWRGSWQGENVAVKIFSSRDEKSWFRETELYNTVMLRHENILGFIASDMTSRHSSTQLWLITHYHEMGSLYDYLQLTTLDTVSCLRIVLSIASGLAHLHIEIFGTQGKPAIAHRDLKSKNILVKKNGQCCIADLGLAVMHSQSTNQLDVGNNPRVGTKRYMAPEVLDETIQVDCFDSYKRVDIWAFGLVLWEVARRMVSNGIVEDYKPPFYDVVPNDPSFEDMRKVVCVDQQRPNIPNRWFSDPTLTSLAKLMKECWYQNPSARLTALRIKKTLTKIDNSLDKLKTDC

human ALK2 R206H = target: T2, human ALK2 R206H (Homo sapiens, UniProt Q04771, R206H); experiment: Cell-based ALK2-R206H cell activity assay (Smad1-Ser463/Ser465 phosphorylation by AlphaLISA in HEK293-ALK2-R206H cells)
T2 construct: expressed in transfected cells; host or cells: HEK293 (ATCC CRL1573), lentivirus transduction, blasticidin selection
T2 sequence (Q04771 21-509 R206H): T1 sequence (Q04771 21-509 R206H)
How it was run: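 Stable HEK293 cells expressing C-terminally FLAG-tagged human ALK2 R206H (lentiviral, blasticidin-selected) were treated with compounds in 10-point, 3-fold dilutions from 10 μM or 1 μM top, in duplicate. Smad1 Ser463/Ser465 phosphorylation was read by AlphaLISA.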

[2] = ALK2 R206H, LANTHASCREEN TR-FRET competitive binding, read-out: Binding Assay (IC50)
[3] = read-out: Cell Line (Cell Assay IC50)

Compound	IC50 [1, 2]	IC50 (human ALK2 R206H; [3])	IC50 [1]	IC50 (human ALK2 R206H; Cell Line (Cell Assay IC50))
CC(C)N1CCC[C@H](c2ccc(-c3cc4c(N5CCN(C(=O)NCCC#N)CC5)ccnn4c3)cc2)C1 [Compound 618]	< 10 nM	< 100 nM		
CCN1CCC(c2ccc(-c3cc4c(N5CCN(C(=O)[C@H]6C[C@H]6F)CC5)ccnn4c3)cc2)CC1 [Compound 281]	< 10 nM	< 100 nM		
COC1(c2ccc(-c3cc4c(N5CCN(C(=O)OC6COC6)CC5)ccnn4c3)cc2)CCNCC1 [Compound 599]	< 10 nM	< 100 nM		
Cc1cc([C@@H]2CCN(C(C)C)C2)ccc1-c1cc2c(N3CCN(C(=O)C4CC4)CC3)ccnn2c1 [Compound 255]	< 10 nM	100 to 500 nM		
CCO[C@]1(c2ccc(-c3cc4c(N5CCN(C(=O)NC(C)C)CC5)ccnn4c3)nc2)CCCNC1 [Compound 798]	< 10 nM	< 100 nM		
COC1(c2ccc(-c3cc4c(N5CCN(C(=O)[C@H]6C[C@@H]6F)CC5)ccnn4c3)cc2)CCN(C(C)C)CC1 [Compound 681]	< 10 nM	< 100 nM		
CC(C)N1CCC(c2ccc(-c3cc4c(N5CCN(C(=O)OCC6COC6)CC5)ccnn4c3)cc2)CC1 [Compound 665]	< 10 nM	< 100 nM		
CC(C)N1CCC[C@@](F)(c2ccc(-c3cc4c(N5CCN(C(=O)OC6COC6)CC5)ccnn4c3)nc2)C1 [Compound 695]	< 10 nM	< 100 nM		
CCOC(=O)N1CCN(c2ccnn3cc(-c4ccc(C5CCN(CC)CC5)cc4)cc23)C[C@H]1C [Compound 286]	< 10 nM	100 to 500 nM		
CCOC(=O)N1CCN(c2ccnn3cc(-c4ccc(C5CCN(C(C)C)CC5)c(F)c4)cc23)CC1 [Compound 357]	< 10 nM	< 100 nM		
CC(C)N1CCC(c2ccc(-c3cc4c(N5CCN(C(=O)C6CC6)CC5)ccnn4c3)cc2)C1 (stereo not shown) [Compound 201]	< 10 nM	< 100 nM		
N#CC1(c2ccc(-c3cc4c(N5CCN(C(=O)C6CC6)CC5)ccnn4c3)cc2)CCNCC1 [Compound 481]	< 10 nM	< 100 nM		
CCOC(=O)N1CCN(c2ccnn3cc(-c4ccc([C@@]5(F)CCCN(C(C)C)C5)cn4)cc23)CC1 [Compound 614]	< 10 nM	< 100 nM		
CCOC(=O)N1CCN(c2ccnn3cc(-c4ccc([C@]5(C)CN(C(C)C)CCN5)cc4)cc23)CC1 [Compound 598]	< 10 nM	< 100 nM		
CC(C)NC(=O)N1CCN(c2ccnn3cc(-c4cnn([C@@H]5CCCNC5)c4)cc23)CC1 [Compound 469]	< 10 nM	< 100 nM		
CC(C)NC(=O)N1CCN(c2ccnn3cc(-c4ccc([C@@H]5CCCN(C(C)C)C5)cn4)cc23)CC1 [Compound 588]	< 10 nM	< 100 nM		
CO[C@@]1(c2ccc(-c3cc4c(N5CCN(C(=O)C6CC6)CC5)ccnn4c3)cc2F)CCCN(C(C)C)C1 [Compound 684]	< 10 nM	< 100 nM		
CC(C)N1CC[C@](O)(c2ccc(-c3cc4c(N5CCN(C(=O)C6CC6)CC5)ccnn4c3)cc2)C1 [Compound 522]	< 10 nM	< 100 nM		
O=C(C1CC1)N1CCN(c2ccnn3cc(-c4ccc(C5(F)CCCNC5)cc4)cc23)CC1 (stereo not shown) [Compound 177]	< 10 nM	< 100 nM		
N#C[C@@H]1C[C@H]1C(=O)N1CCN(c2ccnn3cc(-c4ccc([C@]5(F)CCCNC5)cc4)cc23)CC1 [Compound 512]	< 10 nM	< 100 nM		
CCNC(=O)N1CCN(c2ccnn3cc(-c4ccc([C@@]5(OC)CCCN(C(C)C)C5)c(F)c4)cc23)CC1 [Compound 698]	< 10 nM	< 100 nM		
CCNC(=O)N1CCN(c2ccnn3cc(-c4nc5c(s4)CN(C(C)C)CC5)cc23)CC1 [Compound 193]	< 10 nM	< 100 nM		
CCOC1(c2ccc(-c3cc4c(N5CCN(C(=O)OCC(F)F)CC5)ccnn4c3)nc2)CCN(C(C)C)CC1 [Compound 872]	< 10 nM	< 100 nM		
CCN1CCC(c2ccc(-c3cc4c(N5CCN(C(=O)N6CCC(C#N)CC6)CC5)ccnn4c3)cc2)CC1 [Compound 428]	< 10 nM	100 to 500 nM		
CCN1CCC[C@H](c2ccc(-c3cc4c(N5CCN(C(=O)C6CC6)CC5)ccnn4c3)cc2)C1 [Compound 207]	< 10 nM	< 100 nM		

Compound	IC50 [1, 2]	IC50 (human ALK2 R206H; [3])	IC50 [1]	IC50 (human ALK2 R206H; Cell Line (Cell Assay IC50))
CC(C)NC(=O)N1CCN(c2ccnn3cc(-c4ccc([C@@]5(O)CCN(C(C)C)C5)cn4)cc23)CC1 [Compound 608]	< 10 nM	100 to 500 nM		
C[C@@H]1CN(c2ccnn3cc(-c4ccc(N5CCNCC5)nc4)cc23)CCN1C(=O)C1CC1 [Compound 170]	10 to 50 nM	100 to 500 nM		
CC(C)NC(=O)N1CCN(c2ccnn3cc(-c4ccc([C@]5(C)CCCN5C(C)C)cc4)cc23)CC1 [Compound 581]	< 10 nM	< 100 nM		
CCOC(=O)N1CCN(c2ccnn3cc(-c4ccc([C@]5(OCC)CCCNC5)cc4)cc23)CC1 [Compound 783]	< 10 nM	< 100 nM		
CC(C)N1CC2(CN(c3ccc(-c4cc5c(N6CCN(C(=O)[C@H]7C[C@H](C#N)C7)CC6)ccnn5c4)cc3)C2)C1 [Compound 426]	< 10 nM	< 100 nM		
COC1(c2ccc(-c3cc4c(N5CCN(C(=O)NC(C)C)CC5)ccnn4c3)nc2)CCN(C2COC2)CC1 [Compound 714]	< 10 nM	< 100 nM		
CCNC(=O)N1CCN(c2ccnn3cc(-c4ccc([C@H]5CCN(C(C)C)C5)cc4)cc23)CC1 [Compound 225]	< 10 nM	< 100 nM		
CCOC(=O)N1CCN(c2ccnn3cc(-c4ccc([C@@H]5CCCN(C(C)C)C5)cc4)cc23)C[C@H]1C [Compound 586]	< 10 nM	100 to 500 nM		
CCOC(=O)N1CCN(c2ccnn3cc(-c4ccc(C5(OC)CCN(C(C)C)CC5)cc4)cc23)CC1 [Compound 643]	< 10 nM	< 100 nM		
COC(=O)C1(c2ccc(-c3cc4c(N5CCN(C(=O)OC6COC6)CC5)ccnn4c3)cc2)CCN(C(C)C)CC1 [Compound 874]			< 10 nM	100 to 500 nM
CC(C)N1CCC[C@H]1c1ccc(-c2cc3c(N4CCN(C(=O)C5CC5)CC4)ccnn3c2)cc1 [Compound 210]	< 10 nM	< 100 nM		
CC(C)N1CC[C@@H](c2ccc(-c3cc4c(N5CCN(C(=O)[C@H]6CC[C@H](C#N)CC6)CC5)ccnn4c3)nc2)C1 [Compound 702]	< 10 nM	< 100 nM		
COC1(c2ccc(-c3cc4c(N5CCN(C(=O)C6CC6)CC5)ccnn4c3)cc2)CCN([C@@H](C)COC(F)F)CC1 [Compound 883]	< 10 nM	< 100 nM		
CC(C)N1CC2(CN(c3ccc(-c4cc5c(N6CCN(C(=O)[C@H]7C[C@@H]7F)CC6)ccnn5c4)cc3)C2)C1 [Compound 623]	< 10 nM	100 to 500 nM		
CCNC(=O)N1CCN(c2ccnn3cc(-c4ccc(C5(OC)CCN(C(C)C)CC5)cc4)cc23)CC1 [Compound 399]	< 10 nM	< 100 nM		
CCNC(=O)N1CCN(c2ccnn3cc(-c4ccc(C5(OC)CCN(C(C)C)CC5)cn4)cc23)CC1 [Compound 644]	< 10 nM	< 100 nM		
O=C(C1CC1)N1CCN(c2ccnn3cc(-c4ccc(OCC5CCN5)cc4)cc23)CC1 (stereo not shown) [Compound 132]	< 10 nM	< 100 nM		
CC(C)N1CCC[C@@H](c2ccc(-c3cc4c(N5CCN(C(=O)[C@H]6C[C@H](C#N)C6)CC5)ccnn4c3)cc2)C1 [Compound 408]	< 10 nM	< 100 nM		
O=C(C1CC1)N1CCN(c2ccnn3cc(-c4cnn(C5CCNCC5)c4)cc23)CC1 [Compound 117]	< 10 nM	100 to 500 nM		
O=C(C1CC1)N1CCN(c2ccnn3cc(-c4ccc(N5CCNCC5)cc4)cc23)CC1 [Compound 127, cyclopropyl(4-(6-(4-(piperazin-1-yl)phenyl)pyrrolo[1,2-b]pyridazin-4-yl)piperazin-1-yl)methanone]	< 10 nM	< 100 nM		
CCN1CCN(CCOc2ccc(-c3cc4c(N5CCN(C(=O)C6CC6)CC5)ccnn4c3)cc2)CC1 [Compound 390, cyclopropyl(4-(6-(4-(2-(4-ethylpiperazin-1-yl)ethoxy)phenyl)pyrrolo[1,2-b]pyridazin-4-yl)piperazin-1-yl)methanone]	10 to 50 nM	100 to 500 nM		
CC(C)N1CC[C@H](c2ccc(-c3cc4c(N5CCN(C(=O)C6CC6)[C@H](C)C5)ccnn4c3)cc2)C1 [Compound 253]	< 10 nM	100 to 500 nM		
CCOC1(c2ccc(-c3cc4c(N5CCN(C(=O)C6CC6)CC5)ccnn4c3)cc2)CCNCC1 [Compound 524]	< 10 nM	< 100 nM		
CC(C)N1CCC[C@@H](c2ccc(-c3cc4c(N5CCN(C(=O)OC6COC6)CC5)ccnn4c3)cc2F)C1 [Compound 692]	< 10 nM	< 100 nM		
CC(C)N1CCN[C@](C)(c2ccc(-c3cc4c(N5CCN(C(=O)C6CC6)CC5)ccnn4c3)cc2)C1 [Compound 570]	< 10 nM	< 100 nM		
